These results are taken from PMC12021657, “Rapid traversal of vast chemical space using machine learning-guided docking screens” (Nature Computational Science, 2025).

Test [1] addresses T1, Human D2R (Homo sapiens, UniProt P14416).
T1 construct: expressed in transfected cells
Briefly: Human D2R functional cAMP assay (HTRF, CHO-D2 #S20 cells, forskolin). The format is cell-based. The note with it: for functional character at D2R: cAMP assay; for Emax: read-out: Emax (maximal effect). How it is done: Human D2R activity was measured by determining the amount of cAMP produced. Human D2R functional experiments were carried out in a CHO-D2 #S20 cell line. Five-thousand cells were seeded in 30 μl of Optimem (Invitrogen 11058) + 500 μM IBMX (Sigma 17018) on a 96-well black-and-white isoplate (PerkinElmer 6005030). Test compounds and dopamine were added in their corresponding wells and incubated for 10 min at 37 °C with gentle stirring (150 r.p.m.). Then, 10 µM forskolin (Sigma 17018) was added and incubated for 5 min at 37 °C with gentle stirring (150 r.p.m.). Reagents from the kit (#CISBIO 62AM4PEC) were added and incubated for 1 h at room temperature with gentle stirring (90 r.p.m.) and protected from light. HTRF (excitation wavelength: 320 nm; emission wavelengths: 620–665 nm) from each well was measured using a Tecan Infinite M1000 Pro. Two independent experiments were carried out to calculate EC50 and Emax values.

For test [2], the target named is T1, Human D2R. Briefly: Human D2R competition radioligand binding ([3H]-spiperone, CHO-D2R #S20 membranes). Conditions: for D2R radioligand displacement at 10 µM (%) / inhibition at 10 µM: 10 µM compound, mean ± SEM of two technical replicates; for inhibition at 10 µM: 2 h, read-out: D2R radioligand displacement at 10 µM (%); for Ki: mean ± SEM from three independent experiments. Here is the method:
Screening compounds (Supplementary Tables 10 and 12) were purchased from Enamine (compound purity >90%, which was confirmed by liquid chromatography−mass spectrometry and ^1H NMR spectroscopy for identified ligands; Supplementary Figs. 19–30). Human D2R competition binding experiments were carried out in polypropylene 96-well plates. Each well contained 20 µg of membranes from a CHO-D2R #S20 cell line (protein concentration of 4,322 µg ml^−1), 1.5 nM [^3H]-spiperone (54.3 Ci mmol^−1, 1 mCi ml^−1, PerkinElmer NET1187250UC) and the compound studied. Non-specific binding was determined in the presence of 10 µM sulpiride (Sigma Aldrich S8010). The reaction mixture (250 µl per well) was incubated at 25 °C for 120 min, after which 200 µl was transferred to a GF/C 96-well plate (Millipore) pretreated with 0.5% PEI and treated with binding buffer (50 mM Tris-HCl, 1 mM EDTA, 5 mM MgCl2, 5 mM KCl, 120 mM NaCl, pH 7.4). The reaction mixture was filtered and washed 4 times with 250 µl wash buffer (50 mM Tris-HCl, 0.9% NaCl, pH 7.4) before the addition of 30 μl Universol. The final measurement was performed in a microplate beta scintillation counter (Microbeta Trilux, PerkinElmer). Human A2AR competition binding experiments were carried out in a multiscreen GF/C 96-well plate (Millipore) pretreated with binding buffer (Tris-HCl 50 mM, EDTA 1 mM, MgCl2 10 mM, 2 U ml^−1 adenosine deaminase, pH 7.4). Each well was incubated with 5 μg of membranes from the HeLa-A2A cell line and prepared in our laboratory (lot A003/14-04-2019, protein concentration 2,058 μg ml^−1), 1 nM [^3H]-ZM241385 (50 Ci mmol^−1, 1 mCi ml^−1, ARC-ITISA 0884), and the compounds studied and standards. Non-specific binding was determined in the presence of NECA 50 μM (Sigma E2387). The reaction mixture (total volume of 200 μl per well) was incubated at 25 °C for 30 min, then filtered and washed 4 times with 250 μl wash buffer (Tris-HCl 50 mM, EDTA 1 mM, MgCl2 10 mM, pH 7.4), and measured in a microplate beta scintillation counter (Microbeta Trilux, PerkinElmer). Unless stated otherwise, three independent experiments were carried out to calculate Ki values.

Like-named read-outs stand apart in the source and are kept apart here.

T1 sequence (P14416 whole entry): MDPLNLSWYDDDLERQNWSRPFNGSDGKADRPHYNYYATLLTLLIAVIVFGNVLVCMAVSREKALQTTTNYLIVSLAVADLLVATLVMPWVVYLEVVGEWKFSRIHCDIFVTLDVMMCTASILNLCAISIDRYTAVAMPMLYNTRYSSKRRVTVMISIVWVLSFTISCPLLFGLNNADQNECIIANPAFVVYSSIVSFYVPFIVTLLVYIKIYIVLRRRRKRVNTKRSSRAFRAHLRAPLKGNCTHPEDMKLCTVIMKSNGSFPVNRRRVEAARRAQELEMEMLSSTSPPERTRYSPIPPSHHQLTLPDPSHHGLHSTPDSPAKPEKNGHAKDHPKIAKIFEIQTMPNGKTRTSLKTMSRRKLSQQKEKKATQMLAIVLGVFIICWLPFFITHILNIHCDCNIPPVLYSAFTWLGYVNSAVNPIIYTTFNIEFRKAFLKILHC

As to `Fc1ccc(-n2ccc(CCNC3Cc4ccccc4C3)n2)cc1` [Compound 1, c1ccc2c(c1)CC(C2)NCCc3ccn(n3)c4ccc(cc4)F], the EC50 – broadly, the concentration that produces a half-maximal response – on Human D2R [1] (CHO-D2 #S20 cells, two independent experiments, read-out: EC50 (D2R-mediated changes in intracellular cAMP)) came out at 10 µM. Besides, on Human D2R [1], the “functional character at D2R” value is given as “full agonists” and the maximal effect (Emax) (as a rule, the greatest response seen or fitted, relative to the assay's reference) is 99%. Besides, the “D2R radioligand displacement at 10 µM (%)” value at Human D2R [2] (listed as Z1441695252) was 59 ± 1%. Also, at Human D2R [2], the inhibition at 10 µM worked out at 59 ± 1% and the affinity corresponds to a Ki of 3 µM.
As for `Cc1cnccc1CCN1CCC(Oc2ccccc2Cl)C1` (stereo not drawn) [Compound 2, Cc1cnccc1CCN2CCC(C2)Oc3ccccc3Cl], at Human D2R [1], the EC50 turned out to be 14 µM, the “functional character at D2R” value is on record as “full agonists” and the maximum response (Emax) came to 100%. For the same molecule, the “D2R radioligand displacement at 10 µM (%)” value on Human D2R [2] (listed as Z2436421891) was determined as 56 ± 2%. At Human D2R [2], the inhibition at 10 µM stood at 56 ± 2% and the inhibitory constant (Ki) (commonly the equilibrium dissociation constant of an inhibitor or competing ligand from its target) is 3.8 µM.
